Test results reported in patent publication US20250108038A1 (priority 2023, published 2025).
Several values for one entry are separate records, joined by “and”; a condition that tells them apart may be missing. Equal values may be shown once.

System: Long Evans rats
Assay: Behavioral satiety sequence (BSS)
Assay type: in vivo, Long Evans rat
Description: The Behavioural Satiety Sequence (BSS) is a technique used to evaluate physiological satiety. It is based on the expression of a sequence of behaviors including eating, grooming, locomotor activity, followed by resting, which are typically observed in rodents post-ingestion (Halford et al, 1998, Pharmacology Biochemistry and Behaviour. 61(2): 159-168). The BSS is a widely used model for determining the effects of novel pharmaceuticals on food intake and measures of satiety in rodents (Oliveira et al, 2011, Revista de Nutrição. 24(4) 619-628), and to discriminate the cause of reduced food intake following pharmacological manipulation. For example, treatments that may reduce food intake by non-specific mechanisms, such as immobility, malaise, and taste adulteration, will disrupt this sequence (Halford et al, 1998, Pharmacology Biochemistry and Behaviour. 61(2): 159-168).
Specifically, 12 male Long-Evans rats were food-deprived for 22 h with a 2 h feeding period each day. Rats were trained to consume daily food during the 2 h period over 25 days. The testing phase was initiated once the rats consistently consumed 16-18 g of food per day with ≤10% variance in amount of feed consumed. Feeding took place in designated individual boxes in a quiet room separate from the housing room. Continuous remote monitoring via video camera during feeding was used to assess the BSS. Food consumption was measured by weighing the total available food before and after the 2 h feeding window, correcting for spillage. Lorcaserin (1 mg/kg) was included as a reference control (Higgins et al, 2011, Neuropsychopharmacology. 37(5): 1177-1191). Subjects were tested using a repeated-measures, Latin square design with 2-3 days wash-out between treatment cycles.
On scheduled test days, animals were monitored remotely via video camera during the feeding access period. The occurrence of four mutually exclusive behaviors (eating/drinking, grooming, active, rest) were individually scored. Over the 2 h feeding period, behaviors were assessed every 30 seconds. Scores were compiled into 23 5 min timebins (timebin 24 was removed due to early removal of animals) and the frequency of each behavior within each timebin was calculated to determine a temporal frequency of each measure (Rodgers et al, 2010, Pharmacology Biochemistry and Behaviour. 97: 3-14). Percentage time was plotted for each behavioral sequence in each timebin to compare between treatment groups (Higgins et al, 2011, Neuropsychopharmacology. 37(5): 1177-1191).

[1] = 0.3 mg/kg, raw score per animal LT-1 to LT-12
[2] = 1 mg/kg, raw data per animal (LT-1 to LT-12)

Clc1ccc(C2(OCC3OCCO3)c3ccccc3C3=NCCN32)cc1 (stereo not drawn) [Compound I-19]
BSS scoring A (active), Time Bin 16 (75-80 TOTAL) [1]: 0 (6×) and 2 (3×) and 3 (3×) | BSS scoring A (active), Time Bin 17 (80-85 TOTAL) [1]: 0 (3×) and 2 and 1 (5×) and 3 and 5 (2×) | BSS scoring A (active), Time Bin 18 (85-90 TOTAL) [1]: 4 and 0 (5×) and 8 and 2 (2×) and 1 and 5 (2×) | BSS scoring E (eating/drinking), Time Bin 13 (60-65 TOTAL) [1]: 10 (3×) and 7 (4×) and 8 (3×) and 9 and 6 | BSS scoring E (eating/drinking), Time Bin 14 (65-70 TOTAL) [1]: 9 (5×) and 6 and 10 (2×) and 7 and 8 (2×) and 2 | BSS scoring E (eating/drinking), Time Bin 15 (70-75 TOTAL) [1]: 9 and 6 (4×) and 4 and 1 and 7 (3×) and 5 and 3 | BSS scoring E (eating/drinking), Time Bin 16 (75-80 TOTAL) [1]: 10 (4×) and 6 (2×) and 9 and 8 and 7 (3×) and 5 | BSS scoring E (eating/drinking), Time Bin 17 (80-85 TOTAL) [1]: 10 (3×) and 5 and 4 (4×) and 7 (2×) and 9 (2×) | BSS scoring E (eating/drinking), Time Bin 18 (85-90 TOTAL) [1]: 4 and 9 (3×) and 8 and 0 and 6 (2×) and 10 and 3 (2×) and 7 | BSS scoring G (grooming), Time Bin 13 (60-65 TOTAL) [1]: 0 (8×) and 1 (4×) | BSS scoring G (grooming), Time Bin 14 (65-70 TOTAL) [1]: 0 (9×) and 1 (3×) | BSS scoring G (grooming), Time Bin 15 (70-75 TOTAL) [1]: 0 (7×) and 1 (5×) | BSS scoring G (grooming), Time Bin 16 (75-80 TOTAL) [1]: 0 (11×) and 1 | BSS scoring G (grooming), Time Bin 17 (80-85 TOTAL) [1]: 0 (8×) and 2 (2×) and 1 (2×) | BSS scoring G (grooming), Time Bin 18 (85-90 TOTAL) [1]: 2 (2×) and 1 (8×) and 0 (2×) | BSS scoring R (resting), Time Bin 13 (60-65 TOTAL) [1]: 0 (7×) and 2 (3×) and 1 (2×) | BSS scoring R (resting), Time Bin 14 (65-70 TOTAL) [1]: 0 (7×) and 1 (4×) and 2 | BSS scoring R (resting), Time Bin 15 (70-75 TOTAL) [1]: 1 (3×) and 0 (6×) and 3 and 2 (2×) | BSS scoring R (resting), Time Bin 16 (75-80 TOTAL) [1]: 0 (6×) and 2 (3×) and 1 (3×) | BSS scoring R (resting), Time Bin 17 (80-85 TOTAL) [1]: 0 (7×) and 1 (2×) and 4 and 3 and 2 | BSS scoring R (resting), Time Bin 18 (85-90 TOTAL) [1]: 0 (6×) and 1 (5×) and 2 | BSS scoring A (active), Time Bin 19 (90-95 TOTAL), AVG (1 mg/kg, AVG of LT-1 to LT-12): 0.14 | BSS scoring A (active), Time Bin 20 (95-100 TOTAL), AVG (1 mg/kg, AVG of LT-1 to LT-12): 0.10 | BSS scoring A (active), Time Bin 21 (100-105 TOTAL), AVG (1 mg/kg, AVG of LT-1 to LT-12): 0.14 | BSS scoring A (active), Time Bin 22 (105-110 TOTAL), AVG (1 mg/kg, AVG of LT-1 to LT-12): 0.15 | BSS scoring A (active), Time Bin 23 (110-115 TOTAL), AVG (1 mg/kg, AVG of LT-1 to LT-12): 0.18 | BSS scoring A (active), Time Bin 24 (115-120 TOTAL), AVG (1 mg/kg, AVG of LT-1 to LT-12): 0.15 | BSS scoring E (eating/drinking), Time Bin 19 (90-95 TOTAL), AVG (1 mg/kg, AVG of LT-1 to LT-12): 0.58 | BSS scoring E (eating/drinking), Time Bin 20 (95-100 TOTAL), AVG (1 mg/kg, AVG of LT-1 to LT-12): 0.73 | BSS scoring E (eating/drinking), Time Bin 21 (100-105 TOTAL), AVG (1 mg/kg, AVG of LT-1 to LT-12): 0.61 | BSS scoring E (eating/drinking), Time Bin 22 (105-110 TOTAL), AVG (1 mg/kg, AVG of LT-1 to LT-12): 0.63 | BSS scoring E (eating/drinking), Time Bin 23 (110-115 TOTAL), AVG (1 mg/kg, AVG of LT-1 to LT-12): 0.59 | BSS scoring E (eating/drinking), Time Bin 24 (115-120 TOTAL), AVG (1 mg/kg, AVG of LT-1 to LT-12): 0.41 | BSS scoring G (grooming), Time Bin 19 (90-95 TOTAL), AVG (1 mg/kg, AVG of LT-1 to LT-12): 0.02 | BSS scoring G (grooming), Time Bin 20 (95-100 TOTAL), AVG (1 mg/kg, AVG of LT-1 to LT-12): 0.01 | BSS scoring G (grooming), Time Bin 21 (100-105 TOTAL), AVG (1 mg/kg, AVG of LT-1 to LT-12): 0.01 | BSS scoring G (grooming), Time Bin 22 (105-110 TOTAL), AVG (1 mg/kg, AVG of LT-1 to LT-12): 0.08 | BSS scoring G (grooming), Time Bin 23 (110-115 TOTAL), AVG (1 mg/kg, AVG of LT-1 to LT-12): 0.06 | BSS scoring G (grooming), Time Bin 24 (115-120 TOTAL), AVG (1 mg/kg, AVG of LT-1 to LT-12): 0.02 | BSS scoring R (resting), Time Bin 19 (90-95 TOTAL), AVG (1 mg/kg, AVG of LT-1 to LT-12): 0.26 | BSS scoring R (resting), Time Bin 20 (95-100 TOTAL), AVG (1 mg/kg, AVG of LT-1 to LT-12): 0.17 | BSS scoring R (resting), Time Bin 21 (100-105 TOTAL), AVG (1 mg/kg, AVG of LT-1 to LT-12): 0.24 | BSS scoring R (resting), Time Bin 22 (105-110 TOTAL), AVG (1 mg/kg, AVG of LT-1 to LT-12): 0.14 | BSS scoring R (resting), Time Bin 23 (110-115 TOTAL), AVG (1 mg/kg, AVG of LT-1 to LT-12): 0.18 | BSS scoring R (resting), Time Bin 24 (115-120 TOTAL), AVG (1 mg/kg, AVG of LT-1 to LT-12): 0.26 | BSS scoring A (active), Time Bin 19 (90-95 TOTAL) [2]: 0 (6×) and 4 and 1 (3×) and 7 and 3 | BSS scoring A (active), Time Bin 20 (95-100 TOTAL) [2]: 0 (8×) and 6 and 3 and 1 and 2 | BSS scoring A (active), Time Bin 21 (100-105 TOTAL) [2]: 0 (7×) and 5 (3×) and 1 (2×) | BSS scoring A (active), Time Bin 22 (105-110 TOTAL) [2]: 1 (3×) and 3 (3×) and 0 (4×) and 4 and 2 | BSS scoring A (active), Time Bin 23 (110-115 TOTAL) [2]: 8 and 0 (5×) and 4 (2×) and 2 and 1 (3×) | BSS scoring A (active), Time Bin 24 (115-120 TOTAL) [2]: 6 and 0 (6×) and 1 and 3 and 2 (2×) and 4 | BSS scoring E (eating/drinking), Time Bin 19 (90-95 TOTAL) [2]: 10 (3×) and 8 (3×) and 5 and 9 and 0 (3×) and 2 | BSS scoring E (eating/drinking), Time Bin 20 (95-100 TOTAL) [2]: 10 (5×) and 6 and 3 and 8 and 2 and 9 (2×) and 0 | BSS scoring E (eating/drinking), Time Bin 21 (100-105 TOTAL) [2]: 10 (5×) and 2 (2×) and 5 and 3 (2×) and 8 and 0 | BSS scoring E (eating/drinking), Time Bin 22 (105-110 TOTAL) [2]: 9 and 6 (4×) and 10 and 5 and 7 (2×) and 8 and 3 (2×) | BSS scoring E (eating/drinking), Time Bin 23 (110-115 TOTAL) [2]: 0 and 7 (4×) and 10 (2×) and 3 and 5 (2×) and 6 and 4 | BSS scoring E (eating/drinking), Time Bin 24 (115-120 TOTAL) [2]: 0 (3×) and 2 (2×) and 10 and 5 (3×) and 3 and 9 and 8 | BSS scoring G (grooming), Time Bin 19 (90-95 TOTAL) [2]: 0 (10×) and 1 (2×) | BSS scoring G (grooming), Time Bin 20 (95-100 TOTAL) [2]: 0 (11×) and 1 | BSS scoring G (grooming), Time Bin 21 (100-105 TOTAL) [2]: 0 (11×) and 1 | BSS scoring G (grooming), Time Bin 22 (105-110 TOTAL) [2]: 0 (7×) and 1 (2×) and 2 (2×) and 3 | BSS scoring G (grooming), Time Bin 23 (110-115 TOTAL) [2]: 1 (3×) and 0 (7×) and 2 (2×) | BSS scoring G (grooming), Time Bin 24 (115-120 TOTAL) [2]: 0 (10×) and 1 (2×) | BSS scoring R (resting), Time Bin 19 (90-95 TOTAL) [2]: 0 (5×) and 2 (3×) and 1 and 9 and 8 and 7 | BSS scoring R (resting), Time Bin 20 (95-100 TOTAL) [2]: 0 (6×) and 4 and 1 (2×) and 2 and 5 and 7 | BSS scoring R (resting), Time Bin 21 (100-105 TOTAL) [2]: 0 (5×) and 3 (3×) and 2 (2×) and 6 and 10 | BSS scoring R (resting), Time Bin 22 (105-110 TOTAL) [2]: 0 (5×) and 1 (2×) and 4 (2×) and 2 (2×) and 3 | BSS scoring R (resting), Time Bin 23 (110-115 TOTAL) [2]: 1 (3×) and 3 (4×) and 0 (3×) and 2 and 4 | BSS scoring R (resting), Time Bin 24 (115-120 TOTAL) [2]: 4 (2×) and 7 (2×) and 0 (4×) and 2 and 5 and 1 (2×) | BSS scoring A (active), Time Bin 19 (90-95 TOTAL), AVG (3 mg/kg, AVG of LT-1 to LT-12): 0.18 | BSS scoring A (active), Time Bin 20 (95-100 TOTAL), AVG (3 mg/kg, AVG of LT-1 to LT-12): 0.19 | BSS scoring A (active), Time Bin 21 (100-105 TOTAL), AVG (3 mg/kg, AVG of LT-1 to LT-12): 0.22 | BSS scoring A (active), Time Bin 22 (105-110 TOTAL), AVG (3 mg/kg, AVG of LT-1 to LT-12): 0.20 | BSS scoring A (active), Time Bin 23 (110-115 TOTAL), AVG (3 mg/kg, AVG of LT-1 to LT-12): 0.19 | BSS scoring A (active), Time Bin 24 (115-120 TOTAL), AVG (3 mg/kg, AVG of LT-1 to LT-12): 0.27
